According to patent US20190086302A1, “COMPOSITION FOR PREPARING BIOLOGICAL MATERIAL HAVING EXCELLENT LIGHT TRANSMISSIVITY AND USE OF COMPOSITION” (RIKEN, priority 2016, published 2019):
Structures can show the parent of a compound that is named as a salt. Where two headings read alike, the source gives them in different places.

Columns and labels:
pH of chemical solution = type: physicochemical
[1] = Absorbance of chemical solution at 400 nm (OD400); type: physicochemical
bovine coagulated blood = test: Decoloring screening: heme eluted from PFA-fixed bovine coagulated blood, absorbance of supernatant; settings: Table 2, 10 wt % aqueous solution, 37° C. overnight; for 700 nm calibrated 420 nm Average: decoloring activity OD420-OD700 of supernatant
Experimental: A high-throughput screening system for evaluating the decoloring ability of various compounds was constructed. The screening system involved adding an aqueous solution of each compound to bovine coagulated blood and then measuring the absorbance of heme collected in the supernatant.
Specifically, to bovine blood, an equal amount of 8% PFA solution was added, and reacted at 4° C. overnight. The mixed liquid was centrifuged at 1500×g for 5 minutes, and the supernatant containing PFA was discarded. Then, the same amount of PBS as the original volume of blood was added to prepare a coagulated blood sample. To 150 μL of 10 wt % aqueous solution of each compound, 50 μL of the coagulated blood sample was added, and reacted at 37° C. overnight. The reaction solution was centrifuged at 1500×g for 5 minutes, and then 100 μL of the supernatant was added to a plate so as to be subjected to absorbance measurement. A sample which is suspended in water instead of being dissolved in the water has a weak decoloring effect, but none the less has a high absorbance value. […]

mouse hemisphere = test: Delipidation and clearing of mouse hemisphere; settings: basic chemicals with pH of 11 to 12; 10 wt %, 37° C., 3 days, then CUBIC-2A
Experimental: Subsequently, the delipidation efficiency of the series of compounds in mammalian tissue was examined. […] The transmittance of the brain tissue was measured, and then the brain tissue was washed with PBS and was disrupted. […] It was thus shown that the above basic chemicals and some neutral chemicals were better than the detergents from the viewpoint of permeability with respect to tissue. […] Subsequently, the mouse hemisphere was subjected to refractive index adjustment with CUBIC-2A. […] Accordingly, #0414 (N-butyldiethanolamine) was selected as a highly-efficient delipidation chemical.

mouse brain = test: Swelling and clearing of delipidated mouse brain; settings: brain delipidated with CUBIC-1, shaken 3 days
mouse spleen = test: Decoloring of mouse spleen (OD420 of supernatant, transmissive image); settings: 10 wt % solution, 37° C. overnight
[2] = Table 2, absorbance of chemical solution at 400 nm

OCCN1CC1 [#1061, 1-(2-Hydroxyethyl)ethyleneimine]
pH (pH of chemical solution; Table 2, chemical solution): 13.1 | 400 nm [1, 2]: 0.048

CNC(=O)c1cccnc1 [#1283, N-Methylnicotinamide]
700 nm calibrated 420 nm Average (bovine coagulated blood): 2.96 | OD400 ([1]; Table 3): 0.003

Cc1cccc(C)c1NC1=NCCCS1.Cl [#1612, Xylazine hydrochloride]
pH (pH of chemical solution; Table 3): 6.8 | OD400 ([1]; Table 3): 0.063

CCC(N)CCN (centres unmarked) [#0678, 1,3-Diaminopentane]
400 nm [1, 2]: 0.048

CCCCN(CCO)CCO [#0414, N-Butyldiethanolamine]
transparency of mouse hemispheres (mouse hemisphere): selected

CCCC[N+](CCCC)(CCCC)Cc1ccccc1.[Cl-] [#0307, Benzyltributylammonium chloride]
pH (pH of chemical solution; Table 3): 7.0 | OD400 ([1]; Table 3): 0.048

C1CCC2=NCCCN2CC1 [#0594, 1,8-Diazabicyclo[5.4.0]-7-undecene]
pH (pH of chemical solution; Table 2, chemical solution): 13.5 | 400 nm [1, 2]: 0.05

CCCCCCCCCCCC[n+]1ccccc1 [#0635, 1-Dodecylpyridinium chloride]
Integrated value 500-700 nm Average (bovine coagulated blood): 3.67 | 700 nm calibrated 420 nm Average (bovine coagulated blood): 3.66

NCC(O)CN [#1062, 1,3-Diamino-2-propanol]
Integrated value 500-700 nm Average (bovine coagulated blood): 0.50

OCCNCc1ccccc1 [#0389, N-Benzylethanolamine]
transparency of mouse hemispheres (mouse hemisphere): selected

NCC1CCOCC1 [#0407, 4-Aminomethyltetrahydropyran]
400 nm [1, 2]: 0.049

NC[C@H](O)[C@@H](O)[C@H](O)[C@H](O)CO [#0956, D-Glucoomine (FocusClear ™), reference compound]
OD400 ([1]; Table 3): 0.280

Cc1cc(=O)n(-c2ccccc2)n1C [#0640, 2,3-Dimethyl-1-phenyl-5-pyrazolone]
pH (pH of chemical solution; Table 2, chemical solution): 7.5 | pH (pH of chemical solution; Table 3): 7.5 | 400 nm [1, 2]: 0.048 | OD400 ([1]; Table 3): 0.048

CCCCCCCCCCCCCCCC[N+](C)(C)C [#1235, Hexadecyltrimethylammonium Chloride]
pH (pH of chemical solution): 6.6 | 400 nm [1]: 0.048

CC(CN)CCCN (centres unmarked) [#1267, 2-Methyl-1,5-diaminopentane]
pH (pH of chemical solution; Table 2, chemical solution): 12.8

CCCCCCCCCCCC[N+](C)(C)CCCS(=O)(=O)O [#0694, Dodecyldimethyl(3-sulfopropyl)ammonium hydroxide]
pH (pH of chemical solution; Table 2, chemical solution, listed as #0661): 6.5 | 400 nm [1, 2]: 0.55 | 400 nm ([1]; Table 2, absorbance of chemical solution at 400 nm, listed as #0661): 0.051

CN(CCCN)CCCN [#0380, 3,3′-Diamino-N-methyldipropylamine]
pH (pH of chemical solution; Table 2, chemical solution): 13.0 | 400 nm [1, 2]: 0.065

CNCC(O)c1cccc(O)c1.Cl (racemic) [#1142, DL-Phenylephrine hydrochloride]
pH (pH of chemical solution): 6.7 | OD400 [1]: 0.060

[Cl-].c1ccc(C[P+](c2ccccc2)(c2ccccc2)c2ccccc2)cc1 [#0425, Benzyltriphenylphosphonium chloride]
pH (pH of chemical solution; Table 2, chemical solution): 9.3 | 400 nm [1, 2]: 0.048

C[N+](C)(C)Cc1ccccc1.[OH-] [#03887, Benzyltrimethylammonium hydroxide]
pH (pH of chemical solution; Table 2, chemical solution, listed as #0398): 12.9 | 400 nm [1, 2]: 0.054

C[C@H](CCC(=O)[O-])[C@H]1CC[C@H]2[C@@H]3CC[C@@H]4C[C@H](O)CC[C@]4(C)[C@H]3C[C@H](O)[C@]12C.[Na+] [#1507, Sodium deoxycholate]
pH (pH of chemical solution; Table 2, chemical solution, listed as #0562): 8.3

c1cnccn1 [#1085, Pyrazine]
pH (pH of chemical solution; Table 2, chemical solution): 8.6 | 400 nm [1, 2]: 0.051

CCCCCCCCCCCCCC[N+](C)(C)Cc1ccccc1 [#0362, Benzyldimethyltetradecylammonium chloride hydrate]
Integrated value 500-700 nm Average (bovine coagulated blood): 1.74 | 700 nm calibrated 420 nm Average (bovine coagulated blood): 2.13 | pH (pH of chemical solution; Table 2, chemical solution): 6.6 | 400 nm [1, 2]: 0.053

c1c[nH]cn1 [#1352, imidazole]
swelling of mouse brain (mouse brain): high-degree of swelling

C[n+]1ccc(-c2cc[n+](C)cc2)cc1 [#0652, 1,1′-Dimethyl-4,4′-bipyridinium dichloride]
pH (pH of chemical solution; Table 2, chemical solution): 6.0 | 400 nm [1, 2]: 0.082

Dodacene-1 LAS (JIS K 3361-1990) [#0672]
pH (pH of chemical solution; Table 2, chemical solution): 5.9 | 400 nm [1, 2]: 0.081

NCCCNCCCN [#0785, 3,3′-Diaminodipropylamine]
pH (pH of chemical solution; Table 2, chemical solution): 13.8 | pH (pH of chemical solution; Table 3): 13.8 | 400 nm [1, 2]: 0.05 | OD400 ([1]; Table 3): 0.05

CCCCCCCCCCCC[N+](C)(C)C [#1021, Dodecyltrimethylammonium chloride]
pH (pH of chemical solution; Table 2, chemical solution): 7.5 | 400 nm [1, 2]: 0.048

Cl.O=C(O)CCP(CCC(=O)O)CCC(=O)O [#0197, Tris(2-carboxyethyl)phosphine hydrochloride]
pH (pH of chemical solution; Table 2, chemical solution): 2.3 | 400 nm [1, 2]: 0.047

Tween ® 40 [#1465]
pH (pH of chemical solution; Table 2, chemical solution): 6.4 | 400 nm [1, 2]: 0.083

CN(C)CCSSCCN(C)C [#0295, Bis(2-dimethylaminoethyl) disuflide dihydrochloride]
pH (pH of chemical solution; Table 3): 5.3 | OD400 ([1]; Table 3): 0.047

CCN(CC)CCO [#1575, 2-Diethylaminoethanol]
pH (pH of chemical solution; Table 2, chemical solution): 12.8 | 400 nm [1, 2]: 0.06

CN(C)CCOC(c1ccccc1)c1ccccc1.Cl [#0909, Diphanhydramine hydrochloride]
pH (pH of chemical solution; Table 3): 7.0 | OD400 ([1]; Table 3): 0.048

Hydrazine carbonate [#1052]
pH (pH of chemical solution): 10.2 | OD400 [1]: 0.047

C1CCC2=[N+](CC1)CCCN2.O=C1N=C([O-])c2ccccc21 [#1181, Phtalimide DBU salt]
pH (pH of chemical solution; Table 3): 6.0 | OD400 ([1]; Table 3): 0.049

CCn1ccnc1 [#0938, 1-Ethylimidazole]
mouse spleen decoloring activity (mouse spleen): highest mouse spleen decoloring activity

CC(C)(C)CC(C)(C)c1ccc(OCCOCC[N+](C)(C)Cc2ccccc2)cc1 [#0441, Benzethonium chloride]
pH (pH of chemical solution): 6.4 | 400 nm [1]: 0.049
